The CheMixHub ionic liquid set

Experiment: xn = mol fraction of the nth substance listed

CCCCCCCC[n+]1ccccc1.[Br-] + O
100 kPa
Settings	electrical conductivity [S/m]
288.15 K, x1 = 0.0006303	0.31
288.15 K, x1 = 0.001206	0.47
288.15 K, x1 = 0.001745	0.62
288.15 K, x1 = 0.002301	0.78
288.15 K, x1 = 0.00309	0.98
288.15 K, x1 = 0.003806	1.12
288.15 K, x1 = 0.004431	1.22
288.15 K, x1 = 0.005002	1.29
288.15 K, x1 = 0.005537	1.35
288.15 K, x1 = 0.006018	1.4
288.15 K, x1 = 0.006445	1.44
288.15 K, x1 = 0.006854	1.48
288.15 K, x1 = 0.007227	1.51
288.15 K, x1 = 0.007547	1.54
293.15 K, x1 = 0.0006303	0.34
293.15 K, x1 = 0.001206	0.54
293.15 K, x1 = 0.001745	0.7
293.15 K, x1 = 0.002301	0.88
293.15 K, x1 = 0.00309	1.11
293.15 K, x1 = 0.003788	1.27
293.15 K, x1 = 0.004431	1.39
293.15 K, x1 = 0.005002	1.47
293.15 K, x1 = 0.00552	1.54
293.15 K, x1 = 0.006	1.59
293.15 K, x1 = 0.006445	1.65
293.15 K, x1 = 0.006837	1.69
293.15 K, x1 = 0.00721	1.73
293.15 K, x1 = 0.007547	1.76
298.15 K, x1 = 0.0006303	0.38
298.15 K, x1 = 0.001206	0.6
298.15 K, x1 = 0.001745	0.79
298.15 K, x1 = 0.002301	0.99
298.15 K, x1 = 0.00309	1.25
298.15 K, x1 = 0.003788	1.43
298.15 K, x1 = 0.004431	1.57
298.15 K, x1 = 0.005002	1.67
298.15 K, x1 = 0.00552	1.75
298.15 K, x1 = 0.006	1.81
298.15 K, x1 = 0.006428	1.87
298.15 K, x1 = 0.006837	1.93
298.15 K, x1 = 0.00721	1.98
298.15 K, x1 = 0.007529	2.02
303.15 K, x1 = 0.0006303	0.45
303.15 K, x1 = 0.001206	0.67
303.15 K, x1 = 0.001745	0.88
303.15 K, x1 = 0.002301	1.1
303.15 K, x1 = 0.00309	1.39
303.15 K, x1 = 0.003788	1.6
303.15 K, x1 = 0.004413	1.75
303.15 K, x1 = 0.004985	1.87
303.15 K, x1 = 0.005502	1.98
303.15 K, x1 = 0.005983	2.07
303.15 K, x1 = 0.006428	2.14
303.15 K, x1 = 0.006819	2.21
303.15 K, x1 = 0.007192	2.27
303.15 K, x1 = 0.007529	2.32
308.15 K, x1 = 0.0006303	0.48
308.15 K, x1 = 0.001206	0.73
308.15 K, x1 = 0.001745	0.97
308.15 K, x1 = 0.002283	1.21
308.15 K, x1 = 0.003072	1.54
308.15 K, x1 = 0.00377	1.77
308.15 K, x1 = 0.004413	1.98
308.15 K, x1 = 0.004985	2.13
308.15 K, x1 = 0.005502	2.23
308.15 K, x1 = 0.005983	2.33
308.15 K, x1 = 0.00641	2.42
308.15 K, x1 = 0.006819	2.49
308.15 K, x1 = 0.007192	2.56
308.15 K, x1 = 0.007512	2.62

CCCCCCCCn1cc[n+](C)c1.[Cl-] + O
Settings	electrical conductivity [S/m]	viscosity [mPa·s]
278.15 K, 100 kPa, x1 = 0.0001	–	1.534
278.15 K, 100 kPa, x1 = 0.0001668	–	1.543
278.15 K, 100 kPa, x1 = 0.0002526	–	1.559
278.15 K, 100 kPa, x1 = 0.0003767	–	1.575
278.15 K, 100 kPa, x1 = 0.0005495	–	1.603
278.15 K, 100 kPa, x1 = 0.000764	–	1.642
278.15 K, 100 kPa, x1 = 0.0009813	–	1.683
283.15 K, 100 kPa, x1 = 0.0001	–	1.316
283.15 K, 100 kPa, x1 = 0.0001668	–	1.322
283.15 K, 100 kPa, x1 = 0.0002526	–	1.33
283.15 K, 100 kPa, x1 = 0.0003767	–	1.346
283.15 K, 100 kPa, x1 = 0.0005495	–	1.368
283.15 K, 100 kPa, x1 = 0.000764	–	1.404
283.15 K, 100 kPa, x1 = 0.0009813	–	1.439
288.15 K, 100 kPa, x1 = 0.0001	–	1.151
288.15 K, 100 kPa, x1 = 0.0001668	–	1.165
288.15 K, 100 kPa, x1 = 0.0002526	–	1.182
288.15 K, 100 kPa, x1 = 0.0003767	–	1.206
288.15 K, 100 kPa, x1 = 0.0005495	–	1.233
288.15 K, 100 kPa, x1 = 0.000764	–	1.27
288.15 K, 100 kPa, x1 = 0.0009813	–	1.304
293.15 K, 100 kPa, x1 = 0.0001	–	1.01
293.15 K, 100 kPa, x1 = 0.0001668	–	1.014
293.15 K, 100 kPa, x1 = 0.0002526	–	1.021
293.15 K, 100 kPa, x1 = 0.0003767	–	1.031
293.15 K, 100 kPa, x1 = 0.0005495	–	1.046
293.15 K, 100 kPa, x1 = 0.000764	–	1.068
293.15 K, 100 kPa, x1 = 0.0009813	–	1.09
298.15 K, 100 kPa, x1 = 0.0001	–	0.898
298.15 K, 100 kPa, x1 = 0.0001668	–	0.901
298.15 K, 100 kPa, x1 = 0.0002526	–	0.906
298.15 K, 100 kPa, x1 = 0.0003767	–	0.916
298.15 K, 100 kPa, x1 = 0.0005495	–	0.929
298.15 K, 100 kPa, x1 = 0.000764	–	0.947
298.15 K, 100 kPa, x1 = 0.0009813	–	0.965
298.15 K, 101.3 kPa, x1 = 4.96e-06	0.00314	–
298.15 K, 101.3 kPa, x1 = 7.53e-06	0.00467	–
298.15 K, 101.3 kPa, x1 = 1.002e-05	0.00613	–
298.15 K, 101.3 kPa, x1 = 1.247e-05	0.00756	–
298.15 K, 101.3 kPa, x1 = 1.481e-05	0.00893	–
298.15 K, 101.3 kPa, x1 = 1.716e-05	0.01029	–
298.15 K, 101.3 kPa, x1 = 1.95e-05	0.0116	–
298.15 K, 101.3 kPa, x1 = 2.177e-05	0.0129	–
298.15 K, 101.3 kPa, x1 = 2.424e-05	0.01436	–
298.15 K, 101.3 kPa, x1 = 2.667e-05	0.0158	–
298.15 K, 101.3 kPa, x1 = 2.939e-05	0.0173	–
303.15 K, 100 kPa, x1 = 0.0001	–	0.804
303.15 K, 100 kPa, x1 = 0.0001668	–	0.807
303.15 K, 100 kPa, x1 = 0.0002526	–	0.812
303.15 K, 100 kPa, x1 = 0.0003767	–	0.819
303.15 K, 100 kPa, x1 = 0.0005495	–	0.83
303.15 K, 100 kPa, x1 = 0.000764	–	0.845
303.15 K, 100 kPa, x1 = 0.0009813	–	0.861
308.15 K, 100 kPa, x1 = 0.0001	–	0.725
308.15 K, 100 kPa, x1 = 0.0001668	–	0.727
308.15 K, 100 kPa, x1 = 0.0002526	–	0.732
308.15 K, 100 kPa, x1 = 0.0003767	–	0.737
308.15 K, 100 kPa, x1 = 0.0005495	–	0.747
308.15 K, 100 kPa, x1 = 0.000764	–	0.761
308.15 K, 100 kPa, x1 = 0.0009813	–	0.775
313.15 K, 100 kPa, x1 = 0.0001	–	0.658
313.15 K, 100 kPa, x1 = 0.0002526	–	0.665
313.15 K, 100 kPa, x1 = 0.0003767	–	0.669
313.15 K, 100 kPa, x1 = 0.0005495	–	0.677
313.15 K, 100 kPa, x1 = 0.000764	–	0.689
313.15 K, 100 kPa, x1 = 0.0009813	–	0.701

298.15 K, 100 kPa, frequency 0.001 MHz
Settings	electrical conductivity [S/m]
x1 = 0.001709	0.532
x1 = 0.002014	0.588
x1 = 0.002301	0.647
x1 = 0.00266	0.716
x1 = 0.002911	0.765
x1 = 0.003215	0.824
x1 = 0.003519	0.889
x1 = 0.003824	0.941
x1 = 0.004074	0.978
x1 = 0.004467	1.02
x1 = 0.004967	1.08
x1 = 0.005947	1.16

CCCCn1cc[n+](C)c1C.C[C@@H](O)[C@H](N)C(=O)[O-] + O
100 kPa
Settings	viscosity [mPa·s]
288.15 K, x1 = 0.4927	331
293.15 K, x1 = 0.2985	102
293.15 K, x1 = 0.7003	447
298.15 K, x1 = 0.7003	307
298.15 K, x1 = 0.8001	402
308.15 K, x1 = 0.1919	24.8
308.15 K, x1 = 0.4004	63
308.15 K, x1 = 0.599	122
308.15 K, x1 = 0.8001	199
313.15 K, x1 = 0.2985	26.1
313.15 K, x1 = 0.599	78
318.15 K, x1 = 0.2985	21.5
318.15 K, x1 = 0.4004	33.1
318.15 K, x1 = 0.4927	45.9
318.15 K, x1 = 0.7003	77
318.15 K, x1 = 0.8001	92
